In brackets after ≈: the same amount, converted by molar mass.
What was measured:
[1] = Equilibrium solubility of compound in DMSO at pH 6.8 by shake flask method; type: physicochemical
[2] = Lipophilicity, logD of compound at pH 7.4; type: physicochemical; settings: buffer
[3] = Metabolic stability in human liver microsomes assessed as intrinsic clearance; type: ADME, Microsome; settings: read-out: CLH
[4] = Metabolic stability in mouse liver microsomes assessed as intrinsic clearance; type: ADME, Microsome; settings: read-out: CLH
[5] = Clearance in C57BL/6 mouse at 1 mg/kg, iv measured after 24 hrs by LC-MS/MS analysis; type: ADME, organism-based; settings: in vivo
[6] = Oral bioavailability in C57BL/6 mouse measured after 24 hrs by LC-MS/MS analysis; type: ADME, organism-based; settings: in vivo
[7] = AUC (0 to infinity) in C57BL/6 mouse at 3 mg/kg, po measured after 24 hrs by LC-MS/MS analysis; type: ADME, organism-based; settings: in vivo
[8] = Apparent permeability from apical to basolateral side in MDCK cells by high-throughput assay; type: ADME, cell-based, Canis lupus familiaris; settings: dog
[9] = In vivo inhibition of NLRP3 in LPS/ATP-induced C57BL/6 mouse model of acute peritonitis assessed as reduction in IL-1beta level at 50 mg/kg, po preadministered with compound for 1 hrs followed by LPS stimulation for 2 hrs and measured 15 mins after ATP addition by ELISA relative to control; type: functional; settings: time 3.25 hrs
[10] = Drug concentration in blood of C57BL/6 mouse model of acute peritonitis at 50 mg/kg, po preadministered with compound for 1 hrs followed by LPS stimulation for 2 hrs and measured 15 mins after ATP addition by HPLC-MS/MS analysis; type: ADME, organism-based; settings: whole blood, read-out: Ct
Cytochrome P450 = test: Drug metabolism in human liver microsomes assessed as CYP450-driven thiophene oxidation mediated metabolite formation by LC-MS/MS analysis; type: ADME, Microsome
[11] = target: Nuclear factor NF-kappa-B complex (Homo sapiens, UniProt P19838+Q00653+Q04206); test: Inhibition of NF-kappaB in PMA-differentiated human THP-1 cells assessed as reduction in TNF-alpha release preincubated with compound for 1 hrs followed by Pam3CSK4 stimulation and measured after 3 hrs by HTRF assay; type: cell-based
[12] = Metabolic stability in rat liver microsomes assessed as intrinsic clearance; type: ADME, Microsome; settings: read-out: CLH
[13] = target: Voltage-gated inwardly rectifying potassium channel KCNH2 (Homo sapiens, UniProt Q12809); test: Displacement of [3H]-dofetilide from human ERG; type: toxicity
Chain of Voltage-gated inwardly rectifying potassium channel KCNH2 (Q12809 whole entry): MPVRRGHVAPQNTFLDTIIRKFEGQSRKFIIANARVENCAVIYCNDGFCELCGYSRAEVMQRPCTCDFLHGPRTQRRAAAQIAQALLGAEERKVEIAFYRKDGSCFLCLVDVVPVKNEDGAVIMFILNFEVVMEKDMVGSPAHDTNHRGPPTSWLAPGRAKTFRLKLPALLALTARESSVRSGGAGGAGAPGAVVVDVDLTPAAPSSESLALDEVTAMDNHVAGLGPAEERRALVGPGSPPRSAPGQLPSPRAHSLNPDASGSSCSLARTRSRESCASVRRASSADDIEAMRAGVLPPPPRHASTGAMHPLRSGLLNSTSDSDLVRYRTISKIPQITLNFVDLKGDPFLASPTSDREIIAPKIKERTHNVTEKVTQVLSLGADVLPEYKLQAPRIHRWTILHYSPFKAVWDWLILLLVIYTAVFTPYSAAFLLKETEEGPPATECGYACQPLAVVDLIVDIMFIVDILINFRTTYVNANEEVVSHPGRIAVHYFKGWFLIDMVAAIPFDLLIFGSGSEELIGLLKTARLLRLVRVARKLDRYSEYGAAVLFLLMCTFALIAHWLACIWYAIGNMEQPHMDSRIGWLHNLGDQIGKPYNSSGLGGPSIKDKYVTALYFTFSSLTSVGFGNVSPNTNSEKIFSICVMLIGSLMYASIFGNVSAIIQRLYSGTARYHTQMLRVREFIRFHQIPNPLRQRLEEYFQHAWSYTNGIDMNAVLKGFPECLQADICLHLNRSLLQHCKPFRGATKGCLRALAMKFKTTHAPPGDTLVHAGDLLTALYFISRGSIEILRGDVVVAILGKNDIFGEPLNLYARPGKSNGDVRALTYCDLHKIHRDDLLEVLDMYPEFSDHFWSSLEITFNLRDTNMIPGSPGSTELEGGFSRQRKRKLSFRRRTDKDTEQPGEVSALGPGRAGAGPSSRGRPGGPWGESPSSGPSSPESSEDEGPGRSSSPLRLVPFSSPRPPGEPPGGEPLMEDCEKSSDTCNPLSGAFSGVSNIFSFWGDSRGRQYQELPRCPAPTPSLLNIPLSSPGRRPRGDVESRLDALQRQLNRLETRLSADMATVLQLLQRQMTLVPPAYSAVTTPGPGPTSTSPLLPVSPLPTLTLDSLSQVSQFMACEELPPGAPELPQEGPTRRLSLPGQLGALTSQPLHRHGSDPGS

Chain of Nuclear factor NF-kappa-B complex (P19838 1-433 limits assumed): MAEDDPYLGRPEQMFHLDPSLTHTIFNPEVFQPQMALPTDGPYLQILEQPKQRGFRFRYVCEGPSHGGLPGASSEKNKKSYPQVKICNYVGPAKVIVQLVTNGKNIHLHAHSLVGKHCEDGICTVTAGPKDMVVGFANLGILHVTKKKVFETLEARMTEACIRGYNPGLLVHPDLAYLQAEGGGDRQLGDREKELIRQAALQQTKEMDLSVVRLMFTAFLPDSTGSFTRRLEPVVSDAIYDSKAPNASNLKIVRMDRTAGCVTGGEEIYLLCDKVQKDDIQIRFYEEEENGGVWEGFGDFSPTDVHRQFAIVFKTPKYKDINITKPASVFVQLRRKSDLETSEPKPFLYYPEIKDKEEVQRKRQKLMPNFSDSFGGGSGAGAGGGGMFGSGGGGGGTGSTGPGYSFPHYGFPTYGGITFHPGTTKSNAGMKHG
Chain of Nuclear factor NF-kappa-B complex (Q00653 1-454 limits assumed): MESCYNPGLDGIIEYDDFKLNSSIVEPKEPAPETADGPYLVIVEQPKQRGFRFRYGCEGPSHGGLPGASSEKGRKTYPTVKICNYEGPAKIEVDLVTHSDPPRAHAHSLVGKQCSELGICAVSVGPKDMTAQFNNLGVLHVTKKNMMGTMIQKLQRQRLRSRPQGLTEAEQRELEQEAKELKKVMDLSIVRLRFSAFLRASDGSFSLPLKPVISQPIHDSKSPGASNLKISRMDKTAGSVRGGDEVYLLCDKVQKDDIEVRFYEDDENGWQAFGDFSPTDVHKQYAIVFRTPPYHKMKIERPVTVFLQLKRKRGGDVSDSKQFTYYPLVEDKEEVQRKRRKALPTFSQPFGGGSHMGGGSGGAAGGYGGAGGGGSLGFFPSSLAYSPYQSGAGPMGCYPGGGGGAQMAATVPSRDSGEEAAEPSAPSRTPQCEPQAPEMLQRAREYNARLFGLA
Chain of Nuclear factor NF-kappa-B complex (Q04206 whole entry): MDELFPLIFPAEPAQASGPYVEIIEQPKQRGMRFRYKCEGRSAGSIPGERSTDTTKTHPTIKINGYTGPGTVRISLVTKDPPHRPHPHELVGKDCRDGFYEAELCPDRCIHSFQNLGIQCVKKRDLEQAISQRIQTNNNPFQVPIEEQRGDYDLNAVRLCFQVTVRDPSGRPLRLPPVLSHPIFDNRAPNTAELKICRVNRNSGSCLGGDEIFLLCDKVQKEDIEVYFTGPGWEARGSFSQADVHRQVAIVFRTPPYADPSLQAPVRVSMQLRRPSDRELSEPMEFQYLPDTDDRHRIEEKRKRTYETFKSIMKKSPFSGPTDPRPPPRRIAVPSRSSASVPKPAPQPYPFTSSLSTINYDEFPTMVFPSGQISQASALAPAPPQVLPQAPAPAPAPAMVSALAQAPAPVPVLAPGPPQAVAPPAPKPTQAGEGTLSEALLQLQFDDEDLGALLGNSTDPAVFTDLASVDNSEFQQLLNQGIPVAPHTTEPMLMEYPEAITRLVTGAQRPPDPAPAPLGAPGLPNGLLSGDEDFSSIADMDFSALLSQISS

Structure (SMILES) | solubility [1] [µM] | logD [2] | microsomal CLint [3] [µL/min/mg] | microsomal CLint [4] [µL/min/mg] | Papp A→B [8] [×10⁻⁶ cm/s] | further results
CC(C)c1nn(CC(=O)Nc2cccnc2)c(=O)c2cc3sc(Cl)cc3n12 | 10 (≈ 4.02 µg/mL) | 4 | 44 | 124 | – | clearance [5]: 16.5 mL/min/kg; bioavailability [6]: 55%; AUC(0-inf) [7]: 3.75 µM·h
CC(C)c1nn(CC(=O)N[C@@H]2CCCN(C)C2)c(=O)c2cc3scnc3n12 | > 1000 | 1.1 | 27 | 231 | – | inhibition in vivo at 50 mg/kg [9]: 40%; concentration at 3.25 h [10]: 113 nM
CC(C)(O)c1nn(CC(=O)Nc2cccnc2)c(=O)c2cc3sccc3n12 | 23 (≈ 8.82 µg/mL) | 2.8 | 68 | 300 | – | –
CC(C)c1nn(CC(=O)Nc2cccnc2)c(=O)c2cc3sc(F)cc3n12 | 251 (≈ 96.7 µg/mL) | 3.4 | 79 | 227 | – | –
CC(C)(O)c1nn(CC(=O)N[C@H]2C[C@@](C)(O)C2)c(=O)c2cc3sc(Cl)cc3n12 | 36 (≈ 15.3 µg/mL) | 2.8 | < 10 | 33 | – | inhibition in vivo at 50 mg/kg [9]: 30%; concentration at 3.25 h [10]: 65 nM
CCc1nn(CC(=O)NC2CCCNC2)c(=O)c2cc3sccc3n12 (stereo unspecified) | > 1000 | -0.2 | < 10 | 50 | 0.7 | microsomal CLint [12]: 40 µL/min/mg
CC(C)c1nn(CC(=O)NC2CCOCC2)c(=O)c2cc3sc(Cl)cc3n12 | 3 (≈ 1.23 µg/mL) | 3 | 30 | 129 | – | –
CC(C)c1nn(CC(=O)N[C@@H]2CCCN(C)C2)c(=O)c2cc3sc(Cl)cc3n12 | > 1000 | 2.4 | 59 | 364 | 15 | clearance [5]: 58 mL/min/kg; bioavailability [6]: 7.8%; AUC(0-inf) [7]: 0.163 µM·h; IC50 [13]: > 30 µM
CC(C)c1nn(CC(=O)N[C@@H]2CCCNC2)c(=O)c2cc3sc(Cl)cc3n12 | > 1000 | 1 | 12 | 55 | 3 | clearance [5]: 55.7 mL/min/kg; bioavailability [6]: 27.6%; AUC(0-inf) [7]: 0.691 µM·h; IC50 [13]: 26 µM
O=C(Cn1nc(C2CC2)n2c(cc3sccc32)c1=O)Nc1cccnc1 | 26 (≈ 9.5 µg/mL) | 2.7 | 76 | 464 | – | –
O=C(Cn1ncn2c(cc3sccc32)c1=O)Nc1cccnc1 | 91 (≈ 29.6 µg/mL) | 1.9 | < 10 | 48 | – | –

The next lines start with results.

solubility [1] [µM] | logD [2] | microsomal CLint [3] [µL/min/mg] | microsomal CLint [4] [µL/min/mg] | Papp A→B [8] [×10⁻⁶ cm/s] | Structure (SMILES) | further results
7 (≈ 2.48 µg/mL) | – | 69 | – | 21 | CCc1nn(CC(=O)Nc2ccncn2)c(=O)c2cc3sccc3n12 | –
19 (≈ 6.98 µg/mL) | 3.1 | 144 | 490 | – | CC(C)c1nn(CC(=O)Nc2cccnc2)c(=O)c2cc3sccc3n12 | Drug metabolism (Cytochrome P450): Metabolite_Detected
128 (≈ 37.2 µg/mL) | – | 54 | – | 26 | CCc1nn(CC(=O)NC)c(=O)c2cc3sccc3n12 | –
4 (≈ 1.47 µg/mL) | – | 405 | – | 5.7 | CCc1nn(CC(=O)Nc2cccc(O)c2)c(=O)c2cc3sccc3n12 | –
4 (≈ 1.58 µg/mL) | – | 299 | – | 41 | CCc1nn(CC(=O)Nc2cccc(C(C)=O)c2)c(=O)c2cc3sccc3n12 | IC50 [11]: > 100 µM
21 (≈ 7.42 µg/mL) | 2.6 | 63 | 412 | 27 | CCc1nn(CC(=O)Nc2cccnc2)c(=O)c2cc3sccc3n12 | –
3 (≈ 1.1 µg/mL) | 3 | 101 | > 1000 | – | CCCc1nn(CC(=O)Nc2cccnc2)c(=O)c2cc3sccc3n12 | –
6 (≈ 2.2 µg/mL) | – | 971 | – | 19 | CCc1nn(CC(=O)N(C)c2ccccc2)c(=O)c2cc3sccc3n12 | –
2 (≈ 0.705 µg/mL) | – | 269 | – | 25 | CCc1nn(CC(=O)Nc2ccccc2)c(=O)c2cc3sccc3n12 | –
